Measured values published in patent US7655804B2, “Diketohydrazine derivative compounds and drugs containing the compounds as the active ingredient” (Ono Pharmaceutical Co., Ltd., priority 2002, dated 2010).

What follows are compounds tested against T1, cathepsin K (Homo sapiens, UniProt P43235) (assay: Measurement of cathepsin K inhibitory activity). Details: Dixon plot, 37° C., pH 5.5.
T1 sequence (P43235 115-329): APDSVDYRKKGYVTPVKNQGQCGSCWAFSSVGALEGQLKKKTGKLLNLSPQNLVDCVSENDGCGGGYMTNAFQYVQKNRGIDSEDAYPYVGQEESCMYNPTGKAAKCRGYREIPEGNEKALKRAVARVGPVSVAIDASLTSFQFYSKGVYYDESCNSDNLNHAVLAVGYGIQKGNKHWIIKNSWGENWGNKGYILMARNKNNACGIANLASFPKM
Type: biochemical
Experimental: 65 μL of cathepsin K enzyme reaction buffer (50 mmol/L of 2-(N-morpholino)ethanesulfonate, 2 mmol/L of ethylenediaminetetraacetate (EDTA) and 4 mmol/L of dithiothreitol (DTT) were mixed to adjust to pH 5.5), 5 μL of cysteine protease inhibitor solution of several concentrations, 20 μL of synthesized substrate (t-butyloxycarbonyl-L-alanyl-glycyl-L-prolyl-L-arginine-4-methyl-chromanyl-7-amide) solution of several concentrations and 10 μL of cathepsin K enzyme solution were mixed and the increase of fluorescence intensity when reacted at 37° C. was measured (λex (excitation wavelength)=355 nm, λem (fluorescence wavelength)=460 nm). As to the substrate and the compound of the present invention, enzyme reactions were carried out in combination of several appropriate concentrations and Dixon plotting was prepared, to define the absolute value of X-coordinate of the intersection point of the graph as Ki value.
`CC(C)(C)CC(NC(=O)C1CCCCC1)C(=O)C(=O)NN1C(=O)CCC1=O` (stereo not drawn) [example 5] was tested, and the Ki was 4 nM.
In the case of `CC(C)(C)CC(NC(=O)C1CCCCCC1)C(=O)C(=O)NN1CCCS1(=O)=O` (stereo not drawn) [2(6)], the Ki is reported as 14 nM.
`CC(C)C[C@H](NC(=O)C1CCCCC1)C(=O)C(=O)NN=C1SCCN1C` [8(1)] gave a Ki of 2.5 nM.
